Converted amounts (≈) assume the structure as drawn. Where two headings read alike, the source gives them in different places.
Tests used:
Assay in all cases: microbe, parasite or virus in culture
Type in all cases: cell-based
[1] = tested on: Mycobacterium tuberculosis CS-res.; settings: read-out: MIC, CS-res.
[2] = tested on: Mycobacterium tuberculosis SM-res.; settings: read-out: MIC, SM-res.
[3] = tested on: Mycobacterium tuberculosis INH TSC ETH-res.; settings: read-out: MIC, INH TSC ETH-res.
[4] = tested on: Mycobacterium tuberculosis INH-res.; settings: read-out: Minimum inhibitory concentration (on egg medium), resistant test strain INH-res.
[5] = tested on: Mycobacterium tuberculosis INH-res.; settings: read-out: MIC, INH-res.
[6] = tested on: Mycobacterium tuberculosis PAS-res.; settings: read-out: MIC, PAS-res.
[7] = tested on: Mycobacterium tuberculosis INH-TSC-res.; settings: read-out: Minimum inhibitory concentration (on egg medium), resistant test strain INH-TSC-res.

Structure (SMILES)	MIC [1] [µg/mL]	MIC [2] [µg/mL]	MIC [3] [µg/mL]	MIC [4] [µg/mL]	MIC [5] [µg/mL]	MIC [6] [µg/mL]	MIC [7] [µg/mL]
O=C(NCc1ccccn1)c1cc([N+](=O)[O-])cc([N+](=O)[O-])c1 [Example 1, N-(pyrid-2-ylmethyl)-3,5-dinitrobenzoic acid amide]	1.6 (≈ 5.29 µM)	1.6 (≈ 5.29 µM)	0.8 (≈ 2.65 µM)	1 (≈ 3.31 µM)	0.8 (≈ 2.65 µM)	1.6 (≈ 5.29 µM)	1 (≈ 3.31 µM)
O=C(NCc1cnc2ccccc2c1)c1cc([N+](=O)[O-])cc([N+](=O)[O-])c1 [Example 9]	0.2 (≈ 0.568 µM)	0.2 (≈ 0.568 µM)	0.03 (≈ 0.0852 µM)	2 (≈ 5.68 µM)	0.4 (≈ 1.14 µM)	0.4 (≈ 1.14 µM)	2 (≈ 5.68 µM)
O=C(NCCc1ccccn1)c1cc([N+](=O)[O-])cc([N+](=O)[O-])c1 [Example 10]	–	–	–	1 (≈ 3.16 µM)	–	–	32 (≈ 101 µM)
O=C(NCc1cccnc1)c1cc([N+](=O)[O-])cc([N+](=O)[O-])c1 [Example 12]	–	–	–	8 (≈ 26.5 µM)	–	–	32 (≈ 106 µM)
O=C(NCc1ccncc1)c1cc([N+](=O)[O-])cc([N+](=O)[O-])c1 [Example 13]	–	–	–	128 (≈ 423 µM)	–	–	128 (≈ 423 µM)
Cc1cccc(CNC(=O)c2cc([N+](=O)[O-])cc([N+](=O)[O-])c2)n1 [Example 14]	1.6 (≈ 5.06 µM)	1.6 (≈ 5.06 µM)	0.8 (≈ 2.53 µM)	–	0.8 (≈ 2.53 µM)	1.6 (≈ 5.06 µM)	–
O=C(NCc1ccc2ccccc2n1)c1cc([N+](=O)[O-])cc([N+](=O)[O-])c1 [Example 15]	0.2 (≈ 0.568 µM)	0.1 (≈ 0.284 µM)	0.05 (≈ 0.142 µM)	1 (≈ 2.84 µM)	0.1 (≈ 0.284 µM)	0.4 (≈ 1.14 µM)	1 (≈ 2.84 µM)
O=C(NCC1CCCO1)c1cc([N+](=O)[O-])cc([N+](=O)[O-])c1 (stereo not shown) [Example 20]	1.6 (≈ 5.42 µM)	1.6 (≈ 5.42 µM)	1.6 (≈ 5.42 µM)	–	1.6 (≈ 5.42 µM)	1.6 (≈ 5.42 µM)	–
O=C(NCC1CCC=CO1)c1cc([N+](=O)[O-])cc([N+](=O)[O-])c1 (stereo not shown) [Example 22]	0.4 (≈ 1.3 µM)	0.4 (≈ 1.3 µM)	0.2 (≈ 0.651 µM)	–	0.1 (≈ 0.325 µM)	0.8 (≈ 2.6 µM)	–
CC(NC(=O)c1cc([N+](=O)[O-])cc([N+](=O)[O-])c1)c1ccccn1 (stereo not shown) [Example 29]	1.6 (≈ 5.06 µM)	0.8 (≈ 2.53 µM)	0.8 (≈ 2.53 µM)	2 (≈ 6.32 µM)	1.6 (≈ 5.06 µM)	1.6 (≈ 5.06 µM)	2 (≈ 6.32 µM)
